# Compound: Cc1nc(NC(=O)N2CCC[C@H]2C(N)=O)sc1-c1ccnc(C(C)(C)C(F)(F)F)c1 [Alpelisib] + O=C(c1cc(Cc2n[nH]c(=O)c3ccccc23)ccc1F)N1CCN(C(=O)C2CC2)CC1 [Olaparib] (partner 8 µM)
# Experiment: relative viability (nuclei count vs DMSO), 5 days (fraction); higher = more cells survive
# Conditions: first compound 1.265 µM
# How it was run: (§1)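 Lung cancer cell lines in 1536-well plates got either a single drug or a fixed anchor-drug dose together with five library-drug doses (not always all listed) in √10 steps, by pin tool, on the day after seeding. Nuclei were counted after 5 days, and relative viability is the treated-to-vehicle ratio of nuclei counts. Values are medians of duplicate plates.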
row,Cell Line,relative viability
1,ABC-1,0.885
2,LCLC-103H,0.603
3,Calu-6,0.615
4,NCI-H522,0.661
5,NCI-H358,0.403
6,EBC-1,0.636
7,A549,0.3
8,IA-LM,0.723
9,NCI-H650,0.378
10,NCI-H596,0.491
11,SW 900,0.914

# Same assay, conditions: first compound 4 µM
row,Cell Line,relative viability
1,NCI-H2126,0.659
2,EPLC-272H,0.485
3,NCI-H1755,0.788
4,NCI-H2023,0.263
5,NCI-H1650,0.622
6,NCI-H1793,0.367
7,NCI-H2342,0.266
8,H3255,0.474
9,NCI-H1975,0.625
10,PC-14,0.295
11,NCI-H1299,0.966
12,NCI-H1437,0.644
13,HOP-62,0.401
14,HCC-44,0.936
15,BEN,0.879
16,LOU-NH91,0.777
17,NCI-H661,0.749
18,NCI-H1651,0.17
19,PC-3 [JPC-3],1.02

row,Cell Line,relative viability
1,SW 1573,0.311
2,LK-2,0.328
3,NCI-H2405,0.71
4,NCI-H1703,0.15
5,NCI-H1648,0.331
6,NCI-H1993,0.735
7,ChaGo-K-1,0.342
8,NCI-H1355,0.519
9,ABC-1,0.804
10,LCLC-103H,0.497
11,Calu-6,0.577
12,NCI-H522,0.491
13,NCI-H358,0.332
14,EBC-1,0.587
15,A549,0.23
16,IA-LM,0.667
17,NCI-H650,0.317
18,NCI-H596,0.438
19,SW 900,0.795

# Compound: CCCS(=O)(=O)Nc1ccc(F)c(C(=O)c2c[nH]c3ncc(-c4ccc(Cl)cc4)cc23)c1F [Vemurafenib] + CC1(C)CCC(c2ccc(Cl)cc2)=C(CN2CCN(c3ccc(C(=O)NS(=O)(=O)c4ccc(N[C@H](CCN5CCOCC5)CSc5ccccc5)c(S(=O)(=O)C(F)(F)F)c4)cc3)CC2)C1 [Navitoclax] (partner 0.5 µM)
# Experiment: as above
# Conditions: first compound 0.03162 µM
# How it was run: as §1
row,Cell Line,relative viability
1,NCI-H2126,0.808
2,EPLC-272H,1.05
3,NCI-H1755,0.937
4,NCI-H2023,0.974
5,NCI-H1650,1.12
6,NCI-H1793,0.389
7,H3255,0.493
8,NCI-H1975,0.94
9,PC-14,0.915
10,NCI-H1299,1.03
11,NCI-H1437,1.01
12,HOP-62,0.939
13,HCC-44,0.879
14,BEN,0.0514
15,LOU-NH91,0.698
16,NCI-H1651,1.02
17,PC-3 [JPC-3],0.728
18,SW 1573,0.927
19,LK-2,0.736
20,NCI-H2405,0.836
21,NCI-H1703,1.19
22,NCI-H1993,0.857
23,ChaGo-K-1,0.949
24,NCI-H1355,0.895
25,Calu-6,0.866
26,EBC-1,0.409
27,A549,1.09
28,IA-LM,0.643
29,NCI-H596,0.93

# Same assay, conditions: first compound 0.1 µM
row,Cell Line,relative viability
1,NCI-H2126,0.778
2,EPLC-272H,0.916
3,NCI-H1755,0.953
4,NCI-H2023,1.03
5,NCI-H1975,1.11
6,NCI-H1299,1.03
7,NCI-H1437,1.06
8,HOP-62,1.12
9,HCC-44,0.931
10,BEN,0.0623
11,LOU-NH91,0.369
12,NCI-H1651,0.976
13,SW 1573,1.12
14,LK-2,0.963
15,NCI-H2405,0.812
16,NCI-H1703,1.24
17,ChaGo-K-1,0.809
18,NCI-H1355,0.96
19,Calu-6,0.814
20,EBC-1,0.408
21,A549,1.29
22,IA-LM,0.806
23,NCI-H596,0.728

# Same assay, conditions: first compound 0.3162 µM
row,Cell Line,relative viability
1,NCI-H2126,0.825
2,EPLC-272H,1.13
3,NCI-H1755,1.05
4,NCI-H2023,1.03
5,NCI-H1650,1.18
6,NCI-H1793,0.361
7,H3255,0.57
8,NCI-H1975,0.952
9,PC-14,0.977
10,NCI-H1299,0.976
11,NCI-H1437,1.05
12,HOP-62,0.966
13,HCC-44,0.973
14,BEN,0.0526
15,NCI-H1651,1.07
16,PC-3 [JPC-3],0.936
17,SW 1573,1.09
18,LK-2,0.753
19,NCI-H1703,0.863
20,NCI-H1993,1.25
21,NCI-H1355,0.99
22,Calu-6,0.609
23,EBC-1,0.453
24,A549,1.31
25,IA-LM,0.794
26,NCI-H596,1.04

# Same assay, conditions: first compound 1 µM
row,Cell Line,relative viability
1,NCI-H2126,0.83
2,EPLC-272H,1.06
3,NCI-H1755,0.998
4,NCI-H2023,1.02
5,NCI-H1650,1.15
6,NCI-H1793,0.454
7,H3255,0.386
8,NCI-H1975,1.03
9,PC-14,0.937
10,NCI-H1299,1.03
11,NCI-H1437,1.09
12,HOP-62,1.05
13,HCC-44,1.03
14,BEN,0.0536
15,LOU-NH91,0.759
16,NCI-H1651,0.93
17,PC-3 [JPC-3],0.788
18,SW 1573,0.934
19,LK-2,0.529
20,NCI-H2405,0.864
21,NCI-H1703,0.933
22,NCI-H1993,1.08
23,ChaGo-K-1,0.958
24,NCI-H1355,0.976
25,Calu-6,0.707
26,EBC-1,0.461
27,A549,1.16
28,IA-LM,0.665
29,NCI-H596,0.842

# Compound: COc1cccc2cc(-c3nc([C@H]4CC[C@H](C(=O)O)CC4)n4ncnc(N)c34)[nH]c12 [OSI-027] + CC(=O)c1c(C)c2cnc(Nc3ccc(N4CCNCC4)cn3)nc2n(C2CCCC2)c1=O [Palbociclib] (partner 0.5 µM)
# Experiment: as above
# Conditions: first compound 0.01 µM
# How it was run: as §1
row,Cell Line,relative viability
1,NCI-H2126,0.362
2,EPLC-272H,0.332
3,NCI-H1755,0.483
4,NCI-H2023,0.36
5,NCI-H1650,0.361
6,NCI-H1793,0.3
7,NCI-H2342,0.51
8,H3255,0.294
9,NCI-H1975,0.601
10,PC-14,0.512
11,NCI-H1437,0.286
12,HOP-62,0.475
13,HCC-44,0.904
14,BEN,0.487
15,LOU-NH91,0.556
16,NCI-H661,0.375

row,Cell Line,relative viability
1,NCI-H1651,0.534
2,PC-3 [JPC-3],0.535
3,SW 1573,0.388
4,LK-2,0.578
5,NCI-H2405,0.509
6,NCI-H1648,0.37
7,NCI-H1993,0.613
8,ChaGo-K-1,0.946
9,NCI-H1355,0.4
10,ABC-1,0.828
11,LCLC-103H,0.484
12,NCI-H522,0.995
13,NCI-H358,0.134
14,NCI-H650,0.333
15,SW 900,0.531

# Same assay, conditions: first compound 0.03162 µM
row,Cell Line,relative viability
1,NCI-H2126,0.361
2,EPLC-272H,0.379
3,NCI-H1755,0.444
4,NCI-H2023,0.326
5,NCI-H1650,0.344
6,NCI-H1793,0.3
7,NCI-H2342,0.503
8,H3255,0.309
9,NCI-H1975,0.578
10,PC-14,0.509
11,NCI-H1437,0.324
12,HOP-62,0.49
13,HCC-44,0.945
14,BEN,0.47
15,LOU-NH91,0.563
16,NCI-H661,0.424
17,NCI-H1651,0.502
18,PC-3 [JPC-3],0.522
19,SW 1573,0.389
20,NCI-H2405,0.491
21,NCI-H1648,0.267
22,NCI-H1993,0.491
23,ChaGo-K-1,0.942
24,NCI-H1355,0.392
25,ABC-1,0.531
26,LCLC-103H,0.538
27,NCI-H522,0.938
28,NCI-H358,0.139
29,NCI-H650,0.35
30,SW 900,0.579

# Same assay, conditions: first compound 0.1 µM
row,Cell Line,relative viability
1,NCI-H2126,0.36
2,EPLC-272H,0.342
3,NCI-H1755,0.421
4,NCI-H2023,0.249
5,NCI-H1650,0.278
6,NCI-H1793,0.236
7,NCI-H2342,0.492
8,H3255,0.303
9,NCI-H1975,0.549
10,PC-14,0.545
11,NCI-H1437,0.309
12,HOP-62,0.418
13,HCC-44,0.955
14,BEN,0.425
15,LOU-NH91,0.503
16,NCI-H661,0.368
17,NCI-H1651,0.497
18,PC-3 [JPC-3],0.563
19,SW 1573,0.356
20,LK-2,0.483
21,NCI-H2405,0.472
22,NCI-H1993,0.414
23,ChaGo-K-1,0.904
24,NCI-H1355,0.317
25,ABC-1,0.476
26,LCLC-103H,0.513
27,NCI-H522,1.04
28,NCI-H358,0.125
29,NCI-H650,0.302
30,SW 900,0.577

# Same assay, conditions: first compound 0.3162 µM
row,Cell Line,relative viability
1,NCI-H2126,0.34
2,EPLC-272H,0.316
3,NCI-H1755,0.445
4,NCI-H2023,0.22
5,NCI-H1650,0.357
6,NCI-H1793,0.187
7,NCI-H2342,0.443
8,H3255,0.271
9,NCI-H1975,0.598
10,PC-14,0.576
11,NCI-H1437,0.357
12,HOP-62,0.457
13,HCC-44,0.929
14,BEN,0.471
15,LOU-NH91,0.567
16,NCI-H661,0.347

row,Cell Line,relative viability
1,NCI-H1651,0.459
2,PC-3 [JPC-3],0.5
3,SW 1573,0.333
4,LK-2,0.403
5,NCI-H2405,0.401
6,NCI-H1648,0.222
7,NCI-H1993,0.432
8,ChaGo-K-1,0.87
9,NCI-H1355,0.264
10,ABC-1,0.444
11,LCLC-103H,0.498
12,NCI-H522,0.79
13,NCI-H358,0.103
14,NCI-H650,0.29
15,SW 900,0.375

# Same assay, conditions: first compound 1 µM
row,Cell Line,relative viability
1,NCI-H2126,0.347
2,EPLC-272H,0.29
3,NCI-H1755,0.336
4,NCI-H2023,0.161
5,NCI-H1650,0.286
6,NCI-H1793,0.181
7,NCI-H2342,0.48
8,H3255,0.321
9,NCI-H1975,0.359
10,PC-14,0.408
11,NCI-H1437,0.22
12,HOP-62,0.287
13,HCC-44,0.877
14,BEN,0.472
15,LOU-NH91,0.529
16,NCI-H661,0.301

row,Cell Line,relative viability
1,NCI-H1651,0.393
2,PC-3 [JPC-3],0.439
3,SW 1573,0.216
4,LK-2,0.163
5,NCI-H2405,0.34
6,NCI-H1648,0.266
7,NCI-H1993,0.381
8,ChaGo-K-1,0.774
9,NCI-H1355,0.257
10,ABC-1,0.553
11,LCLC-103H,0.493
12,NCI-H522,0.535
13,NCI-H358,0.127
14,NCI-H650,0.205
15,SW 900,0.288
